According to article PMC8364340 (Drug Design, Development and Therapy, 2021):

System: STZ-induced diabetic rats
Assay: Blood glucose-lowering efficacy in STZ-induced diabetic rats
Assay type: in vivo
Settings: subcutaneous, 100 nmol/kg, mean ± SD, n=6

Humulin R: Recombinant Human Insulin Injection (Humulin R, 3mL:300IU), Lilly France
AUC for Glucose AUC0-24h (glucometer, trapezoidal rule): 10,990 ± 415.5 mg·h/dL
AUC for Glucose AUC0-1h: 421 ± 20.4 mg·h/dL
AUC for Glucose AUC0-2h: 724 ± 52.2 mg·h/dL
AUC for Glucose AUC0-4h: 1328 ± 100.1 mg·h/dL
AUC for Glucose AUC0-6h: 2156 ± 132.0 mg·h/dL
AUC for Glucose AUC0-8h: 3092 ± 174.8 mg·h/dL
AUC for Glucose AUC0-12h: 5070 ± 259.4 mg·h/dL
AUC for Glucose AUC0-16h: 7146 ± 321.1 mg·h/dL
